Values of other authors as cited in patent publication US12576027B2, “Diclofenac topical formulation with a high absorption rate” (IBSA INSTITUT BIOCHIMIQUE SA, priority 2021, dated 2026).

Conditions: orally administered

absorption: almost complete
time to high hematic peaks from administration: ≤ 2 h
Compound: O=C(O)Cc1ccccc1Nc1c(Cl)cccc1Cl [diclofenac, 2-[(2,6-dichlorophenyl)-amino]benzeneacetic acid]
